Results on two molecules are retold here after US20240183843A1, “METHOD FOR EVALUATING EXCRETION OF SUBSTANCE OF INTEREST BY HUMAN HEPATOCYTE-LIKE CELL” (JSR Corporation, priority 2020, published 2024).

The target of data set [1] is T1, P-glycoprotein (P-gp) (Homo sapiens, UniProt P08183). Put plainly: Quantification of Rho123 incorporated into inner cavity of present evaluation model by LC/MS. The settings on record: Rho123 10 μM in culture solution, 37°C, 30 min. The arrangement: In the obtained culture, an inner cavity due to the membrane of the human hepatocyte-like cell was formed; host or cells: human hepatocyte-like cells (organoid or sac-like material) cultured from human primary hepatocytes. It counts as in vitro ADME. The method, then:
(§1) The culture of human liver cells after the subculturing in Experimental Example 1, the culture medium in Table 1, and 2% by volume of Matrigel with respect to the culture medium were added to a 6-well culture plate (manufactured by Sumitomo Bakelite Co., Ltd., MS-8006R), followed by the suspension culture at 37° ° C. for 3 days in the presence of 5% by volume of CO2 to form a sac-like material.
(§2) In Experimental Example 2, Rho123 (10 μM), which is a substrate for P-glycoprotein (P-gp), was added to the culture solution after the suspension culture. The incorporation of the Rho123 into the inner cavity of the present evaluation model was carried out at 37 °C for 30 min in the presence of 5% by volume of CO2. A culture solution containing the present evaluation model was placed in a low-adsorption 15 mL tube by pipetting, followed by centrifugation.
The present evaluation model of Experimental Example 3, into which Rho123 had been incorporated, was mixed with methanol to kill the human hepatocyte-like cells. After mixing, centrifugation was carried out to extract the supernatant. The supernatant was subjected to analysis by a liquid chromatography-mass spectrometer (LC/MS) (manufactured by SHIMADZU CORPORATION, LCMSTM-8040), and from the concentration and amount of the Rho123 incorporated into the inner cavity and the concentration of the Rho123 in the culture solution, the proportion of the present evaluation model transported into the inner cavity was calculated.
• Column: Xbridge C18 3.5 μm, 2.1 mm×50 mm • Column temperature: 40° ° C. • Internal standard substance: Tolbutamine • Elution solvent: A solution (a 0.1% by mass formic acid solution), B solution (acetonitrile) • Gradient conditions: see Table 2 • Runtime: 7 minutes • Flow rate: 0.4 mL/min • Injection volume: 3 μL
• Mode: Positive (*the standard substance is in a negative mode)

Data set [2] concerns the target T1, P-glycoprotein (P-gp).
Protocol: Rho123 (10 μM) was added to the culture solution containing the culture embedded in Matrigel after the culturing prepared in Experimental Example 1, and the incorporation of the Rho123 into the inner cavity of the culture was carried out at 37° C. for 30 min in the presence of 5% by volume of CO2.
The polymerized Matrigel was degraded by pipetting and enzymatic treatment (Corning (registered trade name) Cell Recovery Solution) in order to measure the amount of the incorporated Rho123.
Data set [3] addresses T1, P-glycoprotein (P-gp). Briefly: Rho123 excretion of present evaluation model (sac-like material, suspension culture), fluorescence microscopy. It counts as in vitro ADME. The arrangement: In the obtained culture, an inner cavity due to the membrane of the human hepatocyte-like cell was formed; host or cells: human hepatocyte-like cells (organoid or sac-like material) cultured from human primary hepatocytes. The conditions noted are these: Rho123 10 μM, 37°C, 30 min, 5% CO2; sac-like material of human hepatocyte-like cells, 2% by volume Matrigel suspension culture; FIG. 2A/2B. The method, then: as §1, §2

The next data set addresses T2, MRP2 (Homo sapiens, UniProt Q92887).
T2 construct: host or cells: human hepatocyte-like cells (sac-like material) cultured from human primary hepatocytes
Put plainly: CDFDA excretion of present evaluation model, microscopy. It counts as in vitro ADME. The settings on record: CDFDA 2 μM, 5 µM, or 10 µM, 37°C, 30 min, 5% CO2; FIG. 5. How it is done:
as §1
In Experimental Example 2, 2 μM, 5 µM, or 10 µM of carboxydichlorofluorescein diacetate (CDFDA), which is a substrate of MRP2, was added to the culture solution after the suspension culture. The incorporation of the CDFDA into the inner cavity of the present evaluation model was carried out at 37 °C for 30 min in the presence of 5% by volume of CO2. A culture solution containing the present evaluation model was placed in a low-adsorption 15 ml tube by pipetting, followed by centrifugation.

T1 sequence (P08183 whole entry): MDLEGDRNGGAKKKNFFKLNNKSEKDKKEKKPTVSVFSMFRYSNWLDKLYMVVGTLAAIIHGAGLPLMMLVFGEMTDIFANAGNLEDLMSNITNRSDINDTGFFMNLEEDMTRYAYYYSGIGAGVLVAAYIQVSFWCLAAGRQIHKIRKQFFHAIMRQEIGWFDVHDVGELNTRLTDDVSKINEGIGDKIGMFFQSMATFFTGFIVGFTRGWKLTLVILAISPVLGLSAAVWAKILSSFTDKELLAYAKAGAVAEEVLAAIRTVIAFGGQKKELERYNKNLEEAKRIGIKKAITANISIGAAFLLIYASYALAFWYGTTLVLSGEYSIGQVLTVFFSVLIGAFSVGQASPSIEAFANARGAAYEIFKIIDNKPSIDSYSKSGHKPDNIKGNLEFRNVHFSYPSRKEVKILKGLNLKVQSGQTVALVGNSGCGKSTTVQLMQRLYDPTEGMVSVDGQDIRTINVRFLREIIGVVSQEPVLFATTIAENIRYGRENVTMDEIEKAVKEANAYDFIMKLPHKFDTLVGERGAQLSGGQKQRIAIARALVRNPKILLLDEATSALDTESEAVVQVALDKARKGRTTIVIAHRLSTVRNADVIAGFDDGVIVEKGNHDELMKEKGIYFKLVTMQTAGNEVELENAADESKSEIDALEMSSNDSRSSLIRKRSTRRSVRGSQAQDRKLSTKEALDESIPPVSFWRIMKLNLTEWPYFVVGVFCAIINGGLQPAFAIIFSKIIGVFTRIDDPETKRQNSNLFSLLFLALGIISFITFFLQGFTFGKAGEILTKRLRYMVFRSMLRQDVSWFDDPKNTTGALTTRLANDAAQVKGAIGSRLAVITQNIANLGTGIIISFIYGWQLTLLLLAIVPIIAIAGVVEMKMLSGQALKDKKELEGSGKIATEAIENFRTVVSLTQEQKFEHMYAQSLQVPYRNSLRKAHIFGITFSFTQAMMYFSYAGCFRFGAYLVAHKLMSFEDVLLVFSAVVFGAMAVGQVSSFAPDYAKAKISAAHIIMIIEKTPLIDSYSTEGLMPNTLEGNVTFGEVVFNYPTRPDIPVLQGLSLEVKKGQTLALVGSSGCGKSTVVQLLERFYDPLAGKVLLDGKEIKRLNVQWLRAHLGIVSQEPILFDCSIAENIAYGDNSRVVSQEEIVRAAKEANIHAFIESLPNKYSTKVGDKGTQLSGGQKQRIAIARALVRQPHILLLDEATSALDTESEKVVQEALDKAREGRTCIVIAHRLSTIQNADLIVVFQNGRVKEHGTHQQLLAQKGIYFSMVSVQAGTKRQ
T2 sequence (Q92887 whole entry): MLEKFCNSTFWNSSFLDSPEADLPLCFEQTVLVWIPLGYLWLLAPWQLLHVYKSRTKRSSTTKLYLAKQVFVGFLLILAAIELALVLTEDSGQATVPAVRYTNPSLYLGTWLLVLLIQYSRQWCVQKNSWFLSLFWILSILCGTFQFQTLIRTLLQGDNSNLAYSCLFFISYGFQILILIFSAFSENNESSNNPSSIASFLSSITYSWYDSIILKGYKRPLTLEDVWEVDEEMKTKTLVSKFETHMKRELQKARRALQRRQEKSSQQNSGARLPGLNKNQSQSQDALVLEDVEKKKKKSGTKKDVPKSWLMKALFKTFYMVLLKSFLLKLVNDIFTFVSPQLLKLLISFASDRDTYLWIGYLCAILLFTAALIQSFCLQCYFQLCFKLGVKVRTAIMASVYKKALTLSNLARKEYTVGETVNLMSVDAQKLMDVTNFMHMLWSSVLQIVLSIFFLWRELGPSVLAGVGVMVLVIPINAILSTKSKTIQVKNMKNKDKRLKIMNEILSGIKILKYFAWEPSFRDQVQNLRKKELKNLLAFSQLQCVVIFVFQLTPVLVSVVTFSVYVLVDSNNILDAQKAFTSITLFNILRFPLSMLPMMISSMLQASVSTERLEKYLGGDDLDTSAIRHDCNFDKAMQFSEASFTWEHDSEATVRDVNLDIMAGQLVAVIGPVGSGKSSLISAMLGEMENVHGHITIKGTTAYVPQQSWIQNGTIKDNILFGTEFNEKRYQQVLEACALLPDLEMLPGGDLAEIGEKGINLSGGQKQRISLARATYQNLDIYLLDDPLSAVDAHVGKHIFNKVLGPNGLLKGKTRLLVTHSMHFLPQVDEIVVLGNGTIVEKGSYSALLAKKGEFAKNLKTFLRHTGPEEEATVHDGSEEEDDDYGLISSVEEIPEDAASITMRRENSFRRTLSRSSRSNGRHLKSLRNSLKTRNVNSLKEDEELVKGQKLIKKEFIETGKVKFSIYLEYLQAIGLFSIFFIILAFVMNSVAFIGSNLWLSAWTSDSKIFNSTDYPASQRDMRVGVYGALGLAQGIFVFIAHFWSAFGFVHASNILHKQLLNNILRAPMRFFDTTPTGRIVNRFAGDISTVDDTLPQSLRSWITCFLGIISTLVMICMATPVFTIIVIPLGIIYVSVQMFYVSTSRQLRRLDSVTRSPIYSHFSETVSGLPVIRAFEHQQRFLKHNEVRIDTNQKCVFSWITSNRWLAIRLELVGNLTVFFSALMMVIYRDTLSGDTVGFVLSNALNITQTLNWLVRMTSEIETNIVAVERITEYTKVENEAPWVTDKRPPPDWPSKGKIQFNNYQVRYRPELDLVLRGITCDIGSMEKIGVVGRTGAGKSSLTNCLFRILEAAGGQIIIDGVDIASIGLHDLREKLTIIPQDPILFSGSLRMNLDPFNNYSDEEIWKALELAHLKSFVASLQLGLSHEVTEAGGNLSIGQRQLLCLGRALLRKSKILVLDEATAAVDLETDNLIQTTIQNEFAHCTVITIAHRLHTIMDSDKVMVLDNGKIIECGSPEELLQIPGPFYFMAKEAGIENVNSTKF

In the case of `COC(=O)c1ccccc1-c1c2ccc(=N)cc-2oc2cc(N)ccc12.Cl` [Rho123], the “Proportion transported into present evaluation model” value at P-glycoprotein (P-gp) [1] (calculated from concentration and amount in inner cavity and concentration in culture solution) was 1.23%. Besides, at P-glycoprotein (P-gp) [1] (methanol extraction, LC/MS), the “Amount of Rho123 in present evaluation model” value amounted to 0.123 nmol and the “Concentration of Rho123 in present evaluation model” value is 615.4 nM. In addition, on P-glycoprotein (P-gp) [2], the “Incorporation into the inner cavity of the culture (microscopy)” value was “incorporation of Rho123 into the inner cavity of the culture was confirmed”. Further, the “Excretion into the inner cavity of the present evaluation model (microscopy)” value at P-glycoprotein (P-gp) [3] is “excreted into the inner cavity of the present evaluation model”.

Turning to “carboxydichlorofluorescein diacetate [CDFDA]”, the “Excretion into the inner cavity of the present evaluation model (microscopy)” value at MRP2 was “excreted into the inner cavity of the present evaluation model”.
